In patent publication US9682926B2, “Cancer chemotherapeutic agent/formulation, manufacture and use thereof” (Bose Institute, priority 2012, dated 2017):
Several values for one entry are separate records, joined by “and”; a condition that tells them apart may be missing. Equal entries are not always repeated. Where two headings read alike, the source gives them in different places.

Experiments:
human PBMC [1] = assay: Cytotoxicity (cell viability) of M2 against human PBMC; format: cell-based; settings: for Total Cell Count (% survival): mean ± SD of five experiments
Procedure: Peripheral blood mononuclear cells (PBMC) were isolated from normal human blood and were maintained in RPMI supplemented with 10% FBS, 100 μg/ml streptomycin and 50 units/ml penicillin, at 37° C. in a humidified incubator containing 5% CO2. […] The doses that were tested ranged between 0.5433×10^−7 μM to 35 μM.

[2] = system: A 549: Lung Cancer cell with wild type p53; assay: Cytotoxicity against cancer cell lines: A 549; format: cell-based
Procedure: (§1) Cancer cell lines with functional or disrupted p53 expression were maintained in ATCC recommended culture media supplemented with 10% FBS, 100 μg/ml streptomycin and 50 units/ml penicillin, at 37° C. in a humidified incubator containing 5% CO2. For experiments, cells (10^6) were plated with 2% serum and then the required experiments were performed. […] Simultaneously, the effect of the compound was also investigated in one p53 mutated breast cancer cell line and in one cervical cancer cell line with disrupted p53 pathway.

[3] = system: HepG2: Liver Cancer cell with wild type p53; assay: Cytotoxicity against cancer cell lines: HepG2; format: cell-based
Procedure: as §1

[4] = system: MCF-7: Breast Cancer cell with p53 wild type; assay: Cytotoxicity against cancer cell lines: MCF-7; format: cell-based
Procedure: as §1

[5] = system: MDA MB 231: Breast Cancer cell with p53 mutation; assay: Cytotoxicity against cancer cell lines: MDA MB 231; format: cell-based
Procedure: as §1

[6] = system: HeLA: Cervical Cancer Cell with unstable P53; assay: Cytotoxicity against cancer cell lines: HeLA; format: cell-based
Procedure: as §1

MDA MB 231 (p53 mutated) = assay: Cell cycle analysis of M2 treated p53 mutated breast cancer cell line (PI flowcytometry); format: cell-based; settings: 12 hour exposure
Procedure: Cell cycle analyses were performed with the p53 mutated breast cancer cell line to explore deeper into the probable mechanism. […] For experiments, cells (10^6) were plated with 2% serum and then the required experiments were performed. Cells were harvested after 12 hour exposure with the compound at varying concentrations and cell cycle phase distribution of nuclear DNA was determined by flowcytometry using propidium iodide (PI) as DNA-binding fluorochrome.
Analyses of the cells in sub GO phase and S/G2/M are given as mean±Standard Deviation of five independent experiments.

Sarcoma 180 cells = assay: Cytotoxicity study against Sarcoma 180 cells in vitro; format: cell-based, murine; settings: Sarcoma 180 (in vitro)
Procedure: Before entering into the in vivo experiments with solid transplantable tumour model of sarcoma 180, the drug's efficacy was tested against the same tumor cell in vitro.

S-180 tumor cells [7] = system: S-180 tumor cells
Excerpt: (§2) For the determination of cell cycle phase distribution of nuclear DNA, cells from bone marrow and tumor tissue (1×10^6 cells) were harvested from tumor bearing untreated and treated mice.

bone marrow cells [8] = system: bone marrow cells
Excerpt: as §2

S-180 tumor cells [9] = assay: Comet assay in sarcoma tumor cells from treated mice (apoptosis); format: in vivo, Swiss albino mice; settings: S-180 bearing mice, vs untreated sarcoma control
Procedure: Comet assay is a sensitive, reliable, and rapid method for DNA damage evaluation. The segmented DNA emigrates from the nucleus towards the anode under an electrical current to produce comets. About 400 μl of the cell suspension was mixed with 800 μl 1% low melting point agarose. Then 100 μl of the mixture was layered on slides precoated with a 1% normal melting point agarose and then covered with a cover slip. The slides were then placed in a refrigerator for 5 min. Then cover slips were carefully removed and the slides were left in a dark place except for the positive control slides. The positive control slides were treated with 200 μM H2O2 solution for 17 min at 4° C., while the negative control slides remained untreated. Then all the slides were immersed in cold lysis solution (2.5 M NaCl, 100 mM EDTA, 0.2 M NaOH, 10 mM Tris, 1% Triton X-100, pH=10), protected from light and refrigerated at 4° C. for 45 min. Slides were then left in freshly prepared electrophoresis solution (0.3 M NaOH, 1 mM EDTA, pH>13,) for 40 min. Electrophoresis was performed using the same solution at 300 mA, 25 V for 45 min. After electrophoresis the slides were neutralized gently with 0.4 M Tris buffer at pH 7.5 for 10 min and stained with 20 μg/ml ethidium bromide for 7 min. […] Comets were counted in four to five different fields of a section, and data are summarized in terms of percent comet. […]

[10] = Serum biochemical markers of toxicity (ALT, AST, ALP, creatinine); format: in vivo, Swiss albino mice; settings: all M2 treated groups except the highest dose (40 μM)
Procedure: Alanine aminotransferase (ALT), aspartate aminotransferase (AST), alkaline phosphatase (ALP) and creatinine levels were measured from collected sera using kits (Sigma).

[11] = Procedure: (§3) The homogenate was then centrifuged at 10,000 g at 4° C. for 20 mins.
The amount of malondialdehyde was measured by reaction with thiobarbituric acid at 532 nm using spectrophotometer. MDA levels were calculated using the standard curve of malondialdehyde and its level expressed in nM/mg of protein.

SOD, CAT and GST = system: SOD, CAT and GST
Procedure: as §3
Briefly, assay mixture consists of 3 mL of H2O2 phosphate buffer and 0.05 mL of the supernatant of the tissue homogenate. The change in absorbance was recorded for 2 min at 30 s interval at 240 nm using spectrophotometer.
One unit of enzyme activity is defined as the amount of enzyme necessary for inhibiting the reaction by 50%. Auto oxidation of Pyrogallol in Tris-HCL buffer (50 mM, pH 7.5) is measured by increase in absorbance at 420 nm.

bone marrow cells [12] = format: in vivo, Swiss albino mice; settings: S-180 tumor bearers
Excerpt: (§4) The cells were resuspended in RPMI-1640.

Nrf-2 = assay: Western blot of Nrf-2 in liver; format: in vivo, Swiss albino mice; settings: S-180 tumor bearers, compared to sarcoma control
Procedure: (§5) Cell lysates were obtained and equal amounts of protein from each sample were diluted with loading buffer, denatured, and separated by 10% sodium dodecyl sulfate-polyacrylamide gel electrophoresis (SDS-PAGE) followed by protein transfer to polyvinylidene fluoride membranes (PVDF). […] Proteins were detected by incubation with corresponding primary antibodies (anti p53, anti-p21, anti-Nrf-2, anti-ERK3 and anti-PCNA) antibodies followed by blotting with AP-conjugated secondary antibody. The blots were then exposed to NBT/BCIP substrate for detection. This analysis was performed three times.

PCNA [13] = assay: Western blot of PCNA in bone marrow; format: in vivo, Swiss albino mice; settings: all M2 treated groups, compared to sarcoma control
Procedure: as §5

PCNA [14] = assay: Western blot of PCNA in tumor tissue; format: in vivo, Swiss albino mice; settings: S-180 tumor tissue
Procedure: as §5

ERK = assay: Western blot of ERK in tumor tissue; format: in vivo, Swiss albino mice; settings: S-180 tumor tissue, compared to sarcoma control and cyclophosphamide treated groups
Procedure: as §5

[15] = system: Ehrlich's ascites carcinoma (EAC); assay: Ehrlich's ascites carcinoma (EAC) tumor model: tumor volume and cell count; format: in vivo; settings: EAC bearing mice, 35 μM, vs EAC control and cyclophosphamide treated
Excerpt: Ehrlich's ascites carcinoma (EAC) cells were maintained by serial intra-peritoneal passage of 10^5 cells per mice. EAC cells were collected from tumor-bearing mice at the exponential phase of growth, roughly 7 days after tumor transplant. The cells were drawn out aseptically with the help of a fine needle. The cells were washed in PBS and counted with the help of a Hemocytometer by the Trypan Blue dye exclusion test. The cells were suspended in PBS and inoculated into the next batch of mice.

bone marrow cells [16] = format: in vivo; settings: EAC tumor bearing mice
Excerpt: as §4

human PBMC [17] = assay: Cytotoxicity (cell viability) of M2 against human PBMC; format: cell-based; settings: highest dose 30 μM
[18] = biological target: G-Quadruplex 5′-TAGGG(TTAGGG)3-3′; assay: Fluorescence emission titration with G-Quadruplex; settings: read-out: equilibrium dissociation constant (KD); from change in fluorescence emission maxima of G-Quadruplex
Procedure: The emission spectra of a DNA duplex and G-Quadruplex sequence were recorded at room temperature using Hitachi spectrometer (F-700 FL spectrophotometer) with one cm path-length quartz cuvette. The emission spectrum was recorded from 300-500 nm with an excitation wavelength of 260 nm. Excitation and emission slits were set to 5 nm each. Emission spectra were recorded by titrating small molecules up to 50 μM concentration against 10 μM G-Quadruplex and duplex DNA.

[19] = S-180 tumor bearers, cyclophosphamide treatment

CN(CCC#N)c1ccc(C=NCCCN=Cc2ccc(N(C)CCC#N)cc2)cc1 [M2, Bis(3-[4-({[3-({4-[(2 cyanoethyl)(methyl)amino]benzylidene}amino)propyl]imino}methyl)(methyl)anilino]propanenitrile)]
effect on the viability of human PBMC (human PBMC [1]; doses 0.1 to 25 μM): negligible effect | PBMC that could not survive the treatment (human PBMC [1]; human PBMC, 35 μM, 12 hours): ~25% | Total Cell Count (% survival) (human PBMC [1]; human PBMC, dose 1 μM): 90.67 ± 2.16% | Total Cell Count (% survival) (human PBMC [1]; human PBMC, dose 5 μM): 89.50 ± 1.05% | Total Cell Count (% survival) (human PBMC [1]; human PBMC, dose 10 μM): 88.67 ± 1.75% | Total Cell Count (% survival) (human PBMC [1]; human PBMC, dose 15 μM): 88.83 ± 1.47% | Total Cell Count (% survival) (human PBMC [1]; human PBMC, dose 20 μM): 87.33 ± 1.97% | Total Cell Count (% survival) (human PBMC [1]; human PBMC, dose 25 μM): 85.17 ± 1.94% | Total Cell Count (% survival) (human PBMC [1]; human PBMC, dose 30 μM): 77.67 ± 3.44% | Death Percentages ([2]; A 549, dose 15 μM): 26 ± 4.32% | Death Percentages ([2]; A 549, dose 20 μM): 34.25 ± 4.35% | Death Percentages ([2]; A 549, dose 25 μM): 47.75 ± 6.34% | Death Percentages ([3]; HepG2, dose 15 μM): 20.75 ± 5.25% | Death Percentages ([3]; HepG2, dose 20 μM): 38.5 ± 6.25%, | Death Percentages ([3]; HepG2, dose 25 μM): 55.86 ± 7.12% | Death Percentages ([4]; MCF-7, dose 15 μM): 23.00 ± 7.26% | Death Percentages ([4]; MCF-7, dose 20 μM): 32.5 ± 2.89% | Death Percentages ([4]; MCF-7, dose 25 μM): 41.5 ± 2.65% | Death Percentages ([5]; MDA MB 231, dose 15 μM): 36.50 ± 5.00% | Death Percentages ([5]; MDA MB 231, dose 20 μM): 47.00 ± 6.78% | Death Percentages ([5]; MDA MB 231, dose 25 μM): 60% and 60.25 ± 9.03% | Death Percentages ([6]; dose 15 μM): 20.5 ± 4.20% | Death Percentages ([6]; dose 20 μM): 37.75 ± 5.44% | Death Percentages ([6]; dose 25 μM): 46.75 ± 5.38% | % S/G2/M as from cell cycle analysis (MDA MB 231 (p53 mutated); MDA MB 231, dose 15 μM): 10.76 ± 1.38% | % Sub G0 as from cell cycle analysis (MDA MB 231 (p53 mutated); MDA MB 231, dose 15 μM): 16.08 ± 2.28% | % S/G2/M as from cell cycle analysis (MDA MB 231 (p53 mutated); MDA MB 231, dose 20 μM): 12.09 ± 1.77% | % Sub G0 as from cell cycle analysis (MDA MB 231 (p53 mutated); MDA MB 231, dose 20 μM): 27.38 ± 2.28% | % S/G2/M as from cell cycle analysis (MDA MB 231 (p53 mutated); MDA MB 231, dose 25 μM): 16.94 ± 4.82% | % Sub G0 as from cell cycle analysis (MDA MB 231 (p53 mutated); MDA MB 231, dose 25 μM): 30.50 ± 4.96% | Death Percentages (Sarcoma 180 cells; dose 15 μM): 36.67 ± 6.12% | Death Percentages (Sarcoma 180 cells; dose 20 μM): 50.33 ± 5.03% | Death Percentages (Sarcoma 180 cells; dose 25 μM): 57.33 ± 4.16% | hypoploid cells (sub-G0 region) of tumor cells (S-180 tumor cells [7]; mouse, in vivo): 39.94% and 69.2% and 41.5% | proliferative stage (sum of S and G2/M) of tumor cells (S-180 tumor cells [7]; mouse, in vivo): distinctive depression | bone marrow hypoploidy peak (bone marrow cells [8]; mouse, in vivo): 5.4% | bone marrow proliferative phase (bone marrow cells [8]; mouse, in vivo): did not decrease | DNA damage in tumor cells (percentage of comet cells per field) (S-180 tumor cells [9]): significant DNA damage | Serum ALT, AST, ALP values and creatinine levels [10]: within the normal range | hepatic LPO levels (oxidative stress) ([11]; mouse, in vivo): significant decrease | activity of hepatic anti-oxidant enzymes SOD, CAT and GST (SOD, CAT and GST; mouse, in vivo): increase | bone marrow cell count / bone marrow suppression (bone marrow cells [12]): did not cause bone marrow suppression | Nrf-2 expression in the liver (Nrf-2): increased | PCNA expression in bone marrow (PCNA [13]): significant increase | PCNA expression in tumor tissues (PCNA [14]): decrease | expression of ERK in tumor tissues (ERK): significantly reduce | tumor cell count [15]: significant reduction | tumor volume [15]: significant reduction | effect on bone marrow (cell count) (bone marrow cells [16]): protective effect | cytotoxic effect on human PBMC (human PBMC [17]): cytotoxic effect | Kd [18]: 31 ± 1.2 µM

O=P1(N(CCCl)CCCl)NCCCO1 (stereo not shown) [cyclophosphamide, reference compound]
hypoploid cells (sub-G0 region) of tumor cells (S-180 tumor cells [7]; S-180 bearing mice, cyclophosphamide treated group): 42.1% | bone marrow hypoploidy peak (bone marrow cells [8]; [19]): 48.5% | bone marrow proliferative phases (S and G2/M combined) (bone marrow cells [8]; [19]): 3% | hepatic LPO levels (oxidative stress) ([11]; liver of S-180 tumor bearers, vs sarcoma control): further enhanced | activity of hepatic anti-oxidant enzymes SOD, CAT and GST (SOD, CAT and GST; liver of S-180 tumor bearers, vs normal and sarcoma control): depression | bone marrow cell count / bone marrow suppression (bone marrow cells [12]): significant depression | effect on bone marrow (cell count) (bone marrow cells [16]): induces myelosuppression
